The results in this text go back to patent US20140128380A1, “METHODS OF MODULATING THE ACTIVITY OF THE MC1 RECEPTOR AND TREATMENT OF CONDITIONS RELATED TO THIS RECEPTOR” (Mimetica Pty Ltd, priority 2009, published 2014).

The target of experiment [1] is T1, human MC1R (Homo sapiens, UniProt Q01726). Put plainly: cAMP stimulation assay, agonist mode, HEK 293 cells transiently expressing MC1 receptor (Alphascreen). It counts as cell-based. More on the design: host or cells: HEK 293 (transient transfection). The settings on record: HEK293 cell; read-out: human MC1R agonism (cAMP EC50 HEK293 cell). As for the experimental part:
HEK 293 cells transiently expressing the melanocortin MC1 receptor were suspended in stimulation buffer (Hanks buffered saline solution (HBSS), 0.1% bovine serum albumin, protease inhibitors and 0.5 mM 3-Isobutyl-1-methylxanthine) at 4×10^6 cells/mL. 5 μl of cells, plus the compounds/peptides as described below, were added to wells of a 384-well plate as soon as possible after resuspension.
To detect agonist activity, test compounds at varying concentrations were diluted in stimulation buffer at two times concentrate and 5 μl was added to wells containing cells. Positive control wells contained NDP-MSH or alpha-MSH alone (no compound) at two times concentrate
Basal level (of cAMP) control wells contained stimulation buffer only (no agonist or compounds). Known concentrations of cAMP (standards) in stimulation buffer were included on the plate, but no cells were added to these wells. The plate was then incubated for 30 mins at 37° C. with gentle shaking. After incubation, 10 μl of lysis buffer (10% Tween 20, 1 M HEPES, 0.1% BSA, protease inhibitors, ddH2O) was added to all wells to be measured. Detection of cAMP was then achieved using the Alphascreen cAMP kit (Perkin Elmer, USA), briefly described as follows. A dilution of 10 μl acceptor beads/mL of lysis buffer was prepared in low light conditions. 5 μl of diluted acceptor beads were added to each well to be measured, then the plate was incubated for 30 mins at room temperature, in the dark, with gentle shaking. In low light conditions, donor beads were diluted at 10 μl/mL of lysis buffer, to which 0.75 μl biotinylated cAMP/mL of lysis buffer was added. This mixture was allowed to incubate for 30 mins at room temperature (in the dark) before proceeding with the assay. Following incubation, 5 μl/mL of biotinylated cAMP/Donor bead mix were added per well in low light conditions and the plate was incubated in the dark, at room temperature, for a further hr. Plates were read on an Envision plate reader (Perkin Elmer) after 1 hr and ˜16 hrs incubation. cAMP concentration in the cells was determined by the use of a ‘standard curve’ generated from the output of known cAMP concentrations as described below.
Each assay plate contained a “standard curve” of known concentrations of cAMP, in 10 fold dilutions. This is an essential part of the assay as there is high inter-plate variability. The plates were read on an Envision multilabel plate reader fitted with Alphascreen technology and the raw data was imported into GraphPad Prism 4 software (GraphPad, USA) for analysis.

Another experiment addresses T2, human MC1R (hMC1R) (Homo sapiens, UniProt Q01726).
T2 construct: purchased Perkin Elmer ES-195-M400UA
The experiment is described as follows: Human MC1R radioligand binding assay (displacement of 125I-labeled NDP-MSH, Perkin Elmer hMC1R membranes). The settings on record: displacement of [125I]NDP-MSH, compounds tested as trifluoroacetate or hydrochloride salts or free base. The method, boiled down: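 Frozen human MC1R membranes were incubated with in-house iodinated, HPLC-purified [125I]NDP-MSH for 1 hr at 37° C. Binding was measured as displacement of the labeled peptide.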

Experiment [2] has as its target T1, human MC1R. Put plainly: cAMP accumulation in MM96L cells transiently transfected with wild type MC1R. It counts as cell-based. The settings on record: 30 min stimulation with 10 μM compound. As for the experimental part:
In a similar assay testing for MC1R agonism, MM96L cells were transiently transfected with wild type MC1R and stimulated with compound (10 μM) for different time points, with cAMP accumulation compared to basal cAMP levels and the cAMP response to stimulation with NDP-MSH

T1 sequence (Q01726 whole entry): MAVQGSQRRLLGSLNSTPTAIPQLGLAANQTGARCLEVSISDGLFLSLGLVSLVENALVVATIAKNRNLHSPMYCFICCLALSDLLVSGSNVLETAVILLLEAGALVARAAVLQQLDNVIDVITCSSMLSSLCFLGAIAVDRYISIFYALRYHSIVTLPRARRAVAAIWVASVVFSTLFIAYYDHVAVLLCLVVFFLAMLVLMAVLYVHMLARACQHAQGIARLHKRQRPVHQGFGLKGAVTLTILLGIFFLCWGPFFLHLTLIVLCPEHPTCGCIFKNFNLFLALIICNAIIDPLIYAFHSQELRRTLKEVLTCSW
T2 sequence (Q01726 whole entry): as above

With `N=C(N)NCCC[C@@H]1N[C@H](CNC(=O)c2ccc(Oc3ccccc3)cc2)CCN(CC(c2ccccc2)c2ccccc2)C1=O` [Compound 112, N-(((3S,5S)-1-(2,2-diphenylethyl)-3-(3-guanidinopropyl)-2-oxo-1,4-diazepan-5-yl)methyl)-4-phenoxybenzamide], on human MC1R [1], the EC50 was 11 µM. In addition, the IC50 at human MC1R (hMC1R) was less than 10 µM. For `N=C(N)NCCC[C@@H]1N[C@H](CNC(=O)c2ccc3ccccc3c2)CCN(CC2CCCCC2)C1=O` [Compound 116, N-(((3S,5S)-1-(cyclohexylmethyl)-3-(3-guanidinopropyl)-2-oxo-1,4-diazepan-5-yl)methyl)-2-naphthamide], in that order: 16 µM and less than 10 µM. The like results for `CC(=O)N[C@@H](Cc1c[nH]cn1)C(=O)N[C@H](Cc1ccccc1)[C@@H]1CCN(CCc2c[nH]c3ccccc23)C(=O)[C@H](CCCNC(=N)N)N1` [Compound 119, (S)—N—((R)-1-((3S,5S)-1-(2-(1H-indol-3-yl)ethyl)-3-(3-guanidinopropyl)-2-oxo-1,4-diazepan-5-yl)-2-phenylethyl)-2-acetamido-3-(1H-imidazol-4-yl)propanamide] were, in that order, 7 µM and less than 10 µM.

As to `NCC[C@@H]1N[C@H](CNC(=O)/C=C/c2ccc(Cl)cc2)CCN(CC(c2ccccc2)c2ccccc2)C1=O` [Compound 136, (E)-N-(((3S,5S)-3-(2-aminoethyl)-1-(2,2-diphenylethyl)-2-oxo-1,4-diazepan-5-yl)methyl)-3-(4-chlorophenyl)acrylamide], the “human MC1R agonism (cAMP, fold incease over basal level)” value on human MC1R [2] was found to be 1.5 fold. Besides, the IC50 on human MC1R (hMC1R) is less than 10 µM. On to `CC[C@H](CN1CC[C@H](CNC(=O)c2ccc3cc(Cl)ccc3c2)N[C@H](CC(C)(C)N2CCCCC2)C1=O)c1ccccc1` [Compound 172, 6-chloro-N-(((3R,5R)-3-(2-methyl-2-(piperidin-1-yl)propyl)-2-oxo-1-((S)-2-phenylbutyl)-1,4-diazepan-5-yl)methyl)-2-naphthamide], for which the IC50 at human MC1R (hMC1R) is less than 10 µM. On to `CNC(=O)[C@H](Cc1ccc2ccccc2c1)N1CC[C@H](CNC(=O)[C@@H](N)Cc2ccc(Cl)cc2)N[C@@H](CCCNC(=N)N)C1=O` [Compound 173, (S)-2-amino-3-(4-chlorophenyl)-N-(((3S,5R)-3-(3-guanidinopropyl)-1-((S)-1-(methylamino)-3-(naphthalen-2-yl)-1-oxopropan-2-yl)-2-oxo-1,4-diazepan-5-yl)methyl)propanamide], for which the IC50 at human MC1R (hMC1R) is less than 10 µM. Take `CNC(=O)[C@H](Cc1ccc2ccccc2c1)N1CC[C@H](CNC(=O)[C@H](N)Cc2ccc(Cl)cc2)N[C@@H](CCCNC(=N)N)C1=O` [Compound 174, (R)-2-amino-3-(4-chlorophenyl)-N-(((3S,5R)-3-(3-guanidinopropyl)-1-((S)-1-(methylamino)-3-(naphthalen-2-yl)-1-oxopropan-2-yl)-2-oxo-1,4-diazepan-5-yl)methyl)propanamide]: the IC50 at human MC1R (hMC1R) was less than 10 µM. Still for that read-out and setting: the same measure for `CNC(=O)[C@H](Cc1ccc2ccccc2c1)N1CC[C@H](CNC(=O)/C=C/c2ccc(Cl)cc2)N[C@@H](CCCNC(=N)N)C1=O` [Compound 175, (E)-3-(4-chlorophenyl)-N-(((3S,5R)-3-(3-guanidinopropyl)-1-((S)-1-(methylamino)-3-(naphthalen-2-yl)-1-oxopropan-2-yl)-2-oxo-1,4-diazepan-5-yl)methyl)acrylamide]: less than 10 µM; for `N=C(N)NCCC[C@H]1N[C@@H](CNC(=O)c2ccc(-c3ccccc3)cc2)CCN(CC2CCCCC2)C1=O` [Compound 176, N-(((3R,5R)-1-(cyclohexylmethyl)-3-(3-guanidinopropyl)-2-oxo-1,4-diazepan-5-yl)methyl)biphenyl-4-carboxamide]: less than 10 µM; for `CC[C@H](CN1CC[C@@H](CNC(=O)c2ccc(-c3ccccc3)cc2)N[C@@H](CCN2CCCCC2)C1=O)c1ccccc1` [Compound 177, N-(((3S,5S)-2-oxo-1-((S)-2-phenylbutyl)-3-(2-(piperidin-1-yl)ethyl)-1,4-diazepan-5-yl)methyl)biphenyl-4-carboxamide]: less than 10 µM. For the compound `CC[C@H](CN1CC[C@@H](CNC(=O)c2csc(-c3ccccc3)n2)N[C@@H](CCN2CCCCC2)C1=O)c1ccccc1` [Compound 178, N-(((3S,5S)-2-oxo-1-((S)-2-phenylbutyl)-3-(2-(piperidin-1-yl)ethyl)-1,4-diazepan-5-yl)methyl)-2-phenylthiazole-4-carboxamide], the IC50 at human MC1R (hMC1R) is less than 10 µM. `CC[C@H](CN1CC[C@@H](CNC(=O)c2ccccc2-c2ccc(Cl)cc2)N[C@@H](CCN2CCCCC2)C1=O)c1ccccc1` [Compound 179, 4′-chloro-N-(((3S,5S)-2-oxo-1-((S)-2-phenylbutyl)-3-(2-(piperidin-1-yl)ethyl)-1,4-diazepan-5-yl)methyl)biphenyl-2-carboxamide]: the IC50 at human MC1R (hMC1R) is less than 10 µM. As for `CC[C@H](CN1CC[C@@H](CNC(=O)c2ccc3cc(Cl)ccc3c2)N[C@@H](CCN(C(C)=O)C(C)C)C1=O)c1ccccc1` [Compound 180, 6-chloro-N-(((3S,5S)-3-(2-(N-isopropylacetamido)ethyl)-2-oxo-1-((S)-2-phenylbutyl)-1,4-diazepan-5-yl)methyl)-2-naphthamide], the IC50 on human MC1R (hMC1R) was less than 10 µM. On the same count and under the same terms, as for `O=C(NC[C@@H]1CCN(CC(c2ccccc2)c2ccccc2)C(=O)[C@H](CCN2CCOCC2)N1)c1ccc2cc(Cl)ccc2c1` [Compound 181, 6-chloro-N-(((3S,5S)-1-(2,2-diphenylethyl)-3-(2-morpholinoethyl)-2-oxo-1,4-diazepan-5-yl)methyl)-2-naphthamide], the figure is less than 10 µM; as for `CC[C@@H](CN1CC[C@H](CNC(=O)c2ccc3cc(Cl)ccc3c2)N[C@H](CCN2CCCCC2)C1=O)c1ccccc1` [Compound 182, 6-chloro-N-(((3R,5R)-2-oxo-1-((R)-2-phenylbutyl)-3-(2-(piperidin-1-yl)ethyl)-1,4-diazepan-5-yl)methyl)-2-naphthamide], less than 10 µM.

In the case of `CC[C@H](CN1CC[C@H](CNC(=O)c2ccc3cc(Cl)ccc3c2)N[C@H](CCN2CCCCC2)C1=O)c1ccccc1` [Compound 183, 6-chloro-N-(((3R,5R)-2-oxo-1-((S)-2-phenylbutyl)-3-(2-(piperidin-1-yl)ethyl)-1,4-diazepan-5-yl)methyl)-2-naphthamide], on human MC1R (hMC1R), the IC50 was less than 10 µM.

Consider `NCCCC[C@H]1N[C@H](CNC(=O)c2ccc(-c3ccccc3)cc2)CCN(CCc2ccccc2)C1=O` [Compound 184, N-(((3R,5S)-3-(4-aminobutyl)-2-oxo-1-phenethyl-1,4-diazepan-5-yl)methyl)biphenyl-4-carboxamide], for which, at human MC1R (hMC1R), the IC50 was less than 10 µM. Regarding `N=C(N)NCCC[C@@H]1N[C@@H](CNC(=O)c2ccc(-c3ccccc3)cc2)CCN(C(c2ccccc2)c2ccccc2)C1=O` [Compound 185, N-(((3S,5R)-1-benzhydryl-3-(3-guanidinopropyl)-2-oxo-1,4-diazepan-5-yl)methyl)biphenyl-4-carboxamide], the “human MC1R agonism (cAMP, fold incease over basal level)” value at human MC1R [2] is given as 1.5 fold. Also, the IC50 on human MC1R (hMC1R) was less than 10 µM. The like results for `N=C(N)NCCC[C@H]1N[C@@H](CNC(=O)c2ccc(-c3ccccc3)cc2)CCN(C(c2ccccc2)c2ccccc2)C1=O` [Compound 186, N-(((3R,5R)-1-benzhydryl-3-(3-guanidinopropyl)-2-oxo-1,4-diazepan-5-yl)methyl)biphenyl-4-carboxamide] were, in that order, 2.5 fold and less than 10 µM. With “(E)-N-(((3S,5S)-3-(aminomethyl)-1-(3,5-dichlorobenzyl)-2-oxo-1,4-diazepan-5-yl)methyl)-3-(4-chlorophenyl)acrylamide [Compound 150]”, the IC50 on human MC1R (hMC1R) is less than 10 µM.

With “N-(((3R,5R)-3-(2-amino-2-methylpropyl)-2-oxo-1-((S)-2-phenylbutyl)-1,4-diazepan-5-yl)methyl)-6-chloro-2-naphthamide [Compound 169]”, at human MC1R (hMC1R), the half-inhibitory concentration (IC50) is less than 10 µM.
